Tests used:
Assay type in all cases: functional
Spodoptera litura [1] = assay: Growth regulating activity of Spodoptera litura assessed as third-instar time at 0.5 ug/cm'2 of castor leaf area after 24 hr
Spodoptera litura [2] = assay: Growth regulating activity of Spodoptera litura assessed as fourth-instar time at 0.5 ug/cm'2 of castor leaf area after 24 hr
Spodoptera litura [3] = assay: Growth regulating activity of Spodoptera litura assessed as sixth-instar time at 0.5 ug/cm'2 of castor leaf area after 24 hr
Spodoptera litura [4] = assay: Antifeedant activity against Spodoptera litura at 1 ug/cm'2 of castor leaf area relative to control
Spodoptera litura [5] = assay: Growth regulating activity of Spodoptera litura assessed as pupal time at 0.5 ug/cm'2 of castor leaf area after 24 hr
Spodoptera litura [6] = assay: Antifeedant activity against Spodoptera litura at 0.5 ug/cm'2 of castor leaf area relative to control
Spodoptera litura [7] = assay: Insecticidal activity against Spodoptera litura assessed as pupal mortality at 0.5 ug/cm'2 of castor leaf area after 24 hr
Spodoptera litura [8] = assay: Antifeedant activity against Spodoptera litura at 5 ug/cm'2 of castor leaf area relative to control
Spodoptera litura [9] = assay: Growth regulating activity of Spodoptera litura assessed as fifth-instar time at 0.5 ug/cm'2 of castor leaf area after 24 hr
Spodoptera litura [10] = assay: Growth regulating activity of Spodoptera litura assessed as total larval time at 0.5 ug/cm'2 of castor leaf area after 24 hr

Compound: CC1=CC(=O)[C@@]2(C)C1=CC(=O)[C@@]13CO[C@]4(C)[C@@H](OC(=O)[C@@H]41)[C@H](O)[C@H]23 [SAMADERINS A]
- Time (Spodoptera litura [1]): 2.9 days
- Time (Spodoptera litura [2]): 3.6 days
- Time (Spodoptera litura [3]): 4.8 days
- Activity (Spodoptera litura [4]): 16.2%
- Time (Spodoptera litura [5]): 8.8 days
- Activity (Spodoptera litura [6]): 18.9%
- Activity (Spodoptera litura [7]): 7.4%
- Activity (Spodoptera litura [8]): 21.1%
- Time (Spodoptera litura [9]): 3.6 days
- Time (Spodoptera litura [10]): 15.1 days

Compound: CC1=CC(=O)[C@@H](O)[C@@]2(C)[C@H]1CC(=O)[C@@]13CO[C@]4(C)[C@@H](OC(=O)[C@@H]41)[C@H](O)[C@@H]32 [SAMADERINS B]
- Time (Spodoptera litura [1]): 3.1 days
- Time (Spodoptera litura [2]): 3.8 days
- Time (Spodoptera litura [3]): 5.1 days
- Activity (Spodoptera litura [4]): 25.9%
- Time (Spodoptera litura [5]): 9.3 days
- Activity (Spodoptera litura [6]): 16.3%
- Activity (Spodoptera litura [7]): 37.5%
- Activity (Spodoptera litura [8]): 63.1%
- Time (Spodoptera litura [9]): 3.4 days
- Time (Spodoptera litura [10]): 15.6 days

Compound: CC1=CC(=O)[C@@H](O)[C@@]2(C)[C@H]1[C@@H](O)[C@H]1OC(=O)C[C@]3(O)[C@]14CO[C@@]3(C)[C@@H](O)[C@H](O)[C@H]24 [INDAQUASSIN C]
- Time (Spodoptera litura [1]): 2.3 days
- Time (Spodoptera litura [2]): 3.8 days
- Time (Spodoptera litura [3]): 4.9 days
- Activity (Spodoptera litura [4]): 48.9%
- Time (Spodoptera litura [5]): 8.5 days
- Activity (Spodoptera litura [6]): 47.6%
- Activity (Spodoptera litura [7]): 10.5%
- Activity (Spodoptera litura [8]): 62.5%
- Time (Spodoptera litura [9]): 3.4 days
- Time (Spodoptera litura [10]): 14.2 days

Compound: C/C=C(\C)C(=O)O[C@H]1C[C@@H](OC(C)=O)[C@@]2(C(=O)OC)CO[C@H]3[C@@H](O)[C@@](C)([C@]45O[C@@]4(C)[C@@H]4C[C@H]5O[C@@H]5OC=C[C@@]54O)[C@H]4[C@]1(CO[C@]4(O)C(=O)OC)[C@@H]32 [AZADIRACHTIN A]
- Time (Spodoptera litura [1]): 3.2 days
- Time (Spodoptera litura [2]): 4.1 days
- Time (Spodoptera litura [3]): 5.4 days
- Activity (Spodoptera litura [4]): 94.8%
- Time (Spodoptera litura [5]): 9.3 days
- Activity (Spodoptera litura [6]): 91.6%
- Activity (Spodoptera litura [7]): 62.5%
- Activity (Spodoptera litura [8]): 95.4%
- Time (Spodoptera litura [9]): 3.3 days
- Time (Spodoptera litura [10]): 16.1 days

Compound: CC1=C[C@H](O)[C@@H](O)[C@@]2(C)[C@H]1CC(=O)[C@@]13CO[C@]4(C)[C@@H](OC(=O)[C@@H]41)[C@H](O)[C@@H]32 [SAMADERINS C]
- Time (Spodoptera litura [1]): 2.7 days
- Time (Spodoptera litura [2]): 4.4 days
- Time (Spodoptera litura [3]): 4.4 days
- Activity (Spodoptera litura [4]): 16.1%
- Time (Spodoptera litura [5]): 9.7 days
- Activity (Spodoptera litura [6]): 15%
- Activity (Spodoptera litura [7]): 54.1%
- Activity (Spodoptera litura [8]): 55.3%
- Time (Spodoptera litura [9]): 3.8 days
- Time (Spodoptera litura [10]): 15.3 days

Reference: ChEMBL document CHEMBL3044939, “Insect antifeedant and growth regulating activities of quassinoids from Samadera indica” (2001)
